Reference: ChEMBL document CHEMBL1201862, “PubChem BioAssay data set” (2004)
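Method: 48-hour compound exposure of cells in 96-well plates, five concentrations, linear interpolation of endpoints. GI50 is the concentration that inhibits growth by half.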 Activity calls are given as the source filed them. Cut-off read from the data, not from the text of the source: active = GI50 up to about 1.1 µM and inactive = higher.

Key:
Test in all cases: NCI tumour cell line growth inhibition, 48 h
[1] = test system: 786-0
[2] = test system: A549
[3] = test system: ACHN
[4] = test system: COLO 205
[5] = test system: DLD-1
[6] = test system: DMS-114
[7] = test system: DMS-273
[8] = test system: EKVX
[9] = test system: HCC 2998
[10] = test system: HCT-116
[11] = test system: HCT-15
[12] = test system: HOP-18
[13] = test system: HOP-62
[14] = test system: HOP-92
[15] = test system: HT-29
[16] = test system: IGROV-1
[17] = test system: KM-20L2
[18] = test system: KM12
[19] = test system: LOX IMVI
[20] = test system: LXFL 529
[21] = test system: M14
[22] = test system: M19-MEL
[23] = test system: MOLT-4
[24] = test system: Malme-3M
[25] = test system: NCI-H226
[26] = test system: NCI-H23
[27] = test system: NCI-H460
[28] = test system: NCI-H522
[29] = test system: OVCAR-3
[30] = test system: OVCAR-5
[31] = test system: OVCAR-8
[32] = test system: RPMI-8226
[33] = test system: RXF 393
[34] = test system: SF-268
[35] = test system: SF-295
[36] = test system: SF-539
[37] = test system: SK-MEL-28
[38] = test system: SK-MEL-2
[39] = test system: SK-MEL-5
[40] = test system: SK-OV-3
[41] = test system: SN12C
[42] = test system: SNB-19
[43] = test system: SNB-75
[44] = test system: SNB-78
[45] = test system: SR
[46] = test system: SW-620
[47] = test system: TK-10
[48] = test system: U-251
[49] = test system: UACC-257
[50] = test system: UACC-62
[51] = test system: UO-31
[52] = test system: XF498
[53] = test system: A498
[54] = test system: CAKI-1
[55] = test system: CCRF-CEM
[56] = test system: HL-60
[57] = test system: K562
[58] = test system: OVCAR-4

COc1ccc(-c2ccccc2)c(N/N=C2\CCCNC2=O)c1
GI50 [1]: 85.7 µM (inactive) | GI50 [2]: 12.9 µM (inactive) | GI50 [3]: > 100 µM (inactive) | GI50 [4]: > 100 µM (inactive) | GI50 [5]: > 100 µM (inactive) | GI50 [6]: > 100 µM (inactive) | GI50 [7]: > 100 µM (inactive) | GI50 [8]: > 100 µM (inactive) | GI50 [9]: > 100 µM (inactive) | GI50 [10]: 13.1 µM (inactive) | GI50 [11]: > 100 µM | GI50 [12]: > 100 µM (inactive) | GI50 [13]: 19.6 µM (inactive) | GI50 [14]: > 100 µM (inactive) | GI50 [15]: > 100 µM (inactive) | GI50 [16]: > 100 µM (inactive) | GI50 [17]: > 100 µM (inactive) | GI50 [18]: > 100 µM (inactive) | GI50 [19]: > 100 µM (inactive) | GI50 [20]: > 100 µM (inactive) | GI50 [21]: > 100 µM (inactive) | GI50 [22]: > 100 µM (inactive) | GI50 [23]: > 100 µM (inactive) | GI50 [24]: > 100 µM (inactive) | GI50 [25]: > 100 µM (inactive) | GI50 [26]: > 100 µM (inactive) | GI50 [27]: > 100 µM (inactive) | GI50 [28]: > 100 µM (inactive) | GI50 [29]: > 100 µM (inactive) | GI50 [30]: > 100 µM (inactive) | GI50 [31]: > 100 µM (inactive) | GI50 [32]: > 100 µM (inactive) | GI50 [33]: 11 µM (inactive) | GI50 [34]: 43.5 µM (inactive) | GI50 [35]: > 100 µM (inactive) | GI50 [36]: 50.7 µM (inactive) | GI50 [37]: > 100 µM (inactive) | GI50 [38]: > 100 µM (inactive) | GI50 [39]: 28.2 µM (inactive) | GI50 [40]: 96.2 µM (inactive) | GI50 [41]: > 100 µM (inactive) | GI50 [42]: 81.7 µM (inactive) | GI50 [43]: 32.8 µM (inactive) | GI50 [44]: 93.5 µM (inactive) | GI50 [45]: 3.55 µM (inactive) | GI50 [46]: > 100 µM (inactive) | GI50 [47]: > 100 µM (inactive) | GI50 [48]: > 100 µM (inactive) | GI50 [49]: > 100 µM (inactive) | GI50 [50]: 49 µM (inactive) | GI50 [51]: > 100 µM (inactive) | GI50 [52]: 18.7 µM (inactive)

COC(=O)C1=C(C[S+]([O-])c2ccccc2[N+](=O)[O-])ON(C)C1c1ccccc1 (stereo unspecified)
GI50 [1]: 40.6 µM (inactive) | GI50 [53]: > 100 µM (inactive) | GI50 [2]: 47.2 µM (inactive) | GI50 [3]: 31.2 µM (inactive) | GI50 [54]: 45.7 µM (inactive) | GI50 [55]: 10.5 µM (inactive) | GI50 [4]: 43.7 µM (inactive) | GI50 [5]: 30.9 µM (inactive) | GI50 [6]: 24.7 µM (inactive) | GI50 [7]: 28.1 µM (inactive) | GI50 [8]: 55.6 µM (inactive) | GI50 [9]: 15.8 µM (inactive) | GI50 [10]: 25.5 µM (inactive) | GI50 [11]: 22.5 µM | GI50 [56]: 17.4 µM (inactive) | GI50 [12]: 52.2 µM (inactive) | GI50 [13]: > 100 µM (inactive) | GI50 [15]: 32.1 µM (inactive) | GI50 [16]: > 100 µM (inactive) | GI50 [57]: 22.4 µM (inactive) | GI50 [17]: 21.5 µM (inactive) | GI50 [18]: 55.5 µM (inactive) | GI50 [19]: 13.3 µM (inactive) | GI50 [20]: 42 µM (inactive) | GI50 [21]: 94 µM (inactive) | GI50 [22]: 47 µM (inactive) | GI50 [23]: 31 µM (inactive) | GI50 [24]: > 100 µM (inactive) | GI50 [25]: 37.8 µM (inactive) | GI50 [26]: > 100 µM (inactive) | GI50 [27]: > 100 µM (inactive) | GI50 [28]: 18.4 µM (inactive) | GI50 [29]: 40.5 µM (inactive) | GI50 [58]: 66.7 µM (inactive) | GI50 [30]: > 100 µM (inactive) | GI50 [31]: 21.3 µM (inactive) | GI50 [32]: 34 µM (inactive) | GI50 [33]: 25.4 µM (inactive) | GI50 [34]: 27.5 µM (inactive) | GI50 [35]: 65.8 µM (inactive) | GI50 [36]: 27.3 µM (inactive) | GI50 [38]: 62.1 µM (inactive) | GI50 [39]: 38.8 µM (inactive) | GI50 [40]: > 100 µM (inactive) | GI50 [41]: 19 µM (inactive) | GI50 [42]: > 100 µM (inactive) | GI50 [43]: 24.8 µM (inactive) | GI50 [44]: 82 µM (inactive) | GI50 [46]: 25.4 µM (inactive) | GI50 [47]: 35.7 µM (inactive) | GI50 [48]: 34.4 µM (inactive) | GI50 [49]: 35.2 µM (inactive) | GI50 [50]: 28.8 µM (inactive) | GI50 [51]: 46.8 µM (inactive) | GI50 [52]: 31.1 µM (inactive)

Nc1ccn(CC(CO)CC(c2ccccc2)P(=O)(O)O)c(=O)n1 (stereo unspecified)
GI50 [1]: > 100 µM (inactive) | GI50 [53]: > 100 µM (inactive) | GI50 [2]: > 100 µM (inactive) | GI50 [3]: > 100 µM (inactive) | GI50 [54]: > 100 µM (inactive) | GI50 [55]: > 100 µM (inactive) | GI50 [4]: > 100 µM (inactive) | GI50 [5]: > 100 µM (inactive) | GI50 [6]: > 100 µM (inactive) | GI50 [7]: > 100 µM (inactive) | GI50 [8]: > 100 µM (inactive) | GI50 [9]: > 100 µM (inactive) | GI50 [10]: > 100 µM (inactive) | GI50 [11]: > 100 µM | GI50 [56]: > 100 µM (inactive) | GI50 [12]: < 0.01 µM (active) | GI50 [13]: > 100 µM (inactive) | GI50 [14]: > 100 µM (inactive) | GI50 [15]: > 100 µM (inactive) | GI50 [16]: > 100 µM (inactive) | GI50 [57]: > 100 µM (inactive) | GI50 [17]: > 100 µM (inactive) | GI50 [18]: > 100 µM (inactive) | GI50 [19]: > 100 µM (inactive) | GI50 [20]: > 100 µM (inactive) | GI50 [21]: > 100 µM (inactive) | GI50 [22]: > 100 µM (inactive) | GI50 [23]: > 100 µM (inactive) | GI50 [24]: > 100 µM (inactive) | GI50 [25]: > 100 µM (inactive) | GI50 [26]: > 100 µM (inactive) | GI50 [27]: > 100 µM (inactive) | GI50 [28]: > 100 µM (inactive) | GI50 [29]: > 100 µM (inactive) | GI50 [30]: > 100 µM (inactive) | GI50 [31]: > 100 µM (inactive) | GI50 [32]: > 100 µM (inactive) | GI50 [33]: > 100 µM (inactive) | GI50 [34]: > 100 µM (inactive) | GI50 [35]: > 100 µM (inactive) | GI50 [36]: > 100 µM (inactive) | GI50 [37]: > 100 µM (inactive) | GI50 [38]: > 100 µM (inactive) | GI50 [39]: > 100 µM (inactive) | GI50 [40]: > 100 µM (inactive) | GI50 [41]: > 100 µM (inactive) | GI50 [42]: > 100 µM (inactive) | GI50 [44]: > 100 µM (inactive) | GI50 [46]: > 100 µM (inactive) | GI50 [47]: > 100 µM (inactive) | GI50 [49]: > 100 µM (inactive) | GI50 [50]: > 100 µM (inactive) | GI50 [51]: > 100 µM (inactive) | GI50 [52]: > 100 µM (inactive)
